Drawing on ChEMBL document CHEMBL5528040, “Design and Synthesis of Novel 3-Nitro-1H-1,2,4-triazole-1,2,3-triazole-1,4-disubstituted Analogs as Promising Antitrypanosomatid Agents: Evaluation of In Vitro Activity against Chagas Disease and Leishmaniasis” (J Med Chem, 2024), this text covers Ratio for 1 compound.

The data set is described as follows: Mutagenicity in Salmonella typhimurium TA100 assessed as mutagenic index ratio at 50 ug per plate incubated for 90 mins in presence of S9 fraction by AMES test. It is filed as toxicity, subcellular, Salmonella enterica subsp. enterica serovar Typhimurium. The following applies: s9, 1.5 h, dose 50 µg.

The structures appear in SMILES notation.

As to `O=[N+]([O-])c1ncn(Cc2cn(-c3ccc(OC(F)(F)F)cc3)nn2)n1`, the Ratio is on record as 0.9.
